From article PMC12325182, “Discovery of novel and potent celastrol derivatives as PRDX1 inhibitors for cancer therapy through structure-based virtual screening” (Frontiers in Pharmacology, 2025) come the findings set out here.

For test [1], the target named is T1, PRDX1 (Homo sapiens, UniProt Q06830).
T1 sequence (Q06830 1-199): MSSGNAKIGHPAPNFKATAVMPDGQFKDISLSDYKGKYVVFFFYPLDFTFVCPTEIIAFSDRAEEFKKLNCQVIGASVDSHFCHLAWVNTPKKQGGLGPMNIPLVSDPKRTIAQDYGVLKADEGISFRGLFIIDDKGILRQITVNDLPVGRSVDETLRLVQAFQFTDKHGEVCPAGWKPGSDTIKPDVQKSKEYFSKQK
Briefly: PRDX1 inhibition assay. In kind it is biochemical. Conditions: mean ± SD, n = 3; read-out: PRDX1 (IC50). Here is the method: The cells were purchased from the American Type Culture Collection (ATCC) (Manassas, VA, United States). Cells were cultured in RPMI-1640 medium supplemented with 10% FBS, 50 units/mL penicillin, and 50 μg/mL streptomycin, and maintained at 37°C in a 5% CO2 humidified culture environment. CPs 1-5 were purchased from WuXi AppTec. Human PRDX1 proteins were purchased from Abcam (Cambridge, MA, United States).
First, […] buffer (20 mM HEPES, 5 mM EDTA, 5 μM cofactor A, 2 μM cofactor B, and 300 μM NADPH) was added to a 96-well plate. The test compounds at the designated concentration (0.02–2 nM, with 1.5-fold dilution) were incubated with PRDX1 at 37°C for 25 min, and then the co-incubated mixture was added to each well to a final concentration of 200 nM PRDX1. Finally, 200 μM H2O2 was added to each well to initiate the enzyme reaction cycle. The oxidation of NADPH was determined by the absorption value at 340 nm. Read plate values for 90 s for one cycle and repeat for 20 cycles. The positive control (celastrol, concentrations 0.06–64 μM) was tested in parallel under identical experimental conditions. Three independent replicate experiments were performed.

Test [2] deals with T1, PRDX1. Briefly: Kinetics studies of PRDX1 inhibition. In kind it is biochemical. To be noted: mean ± SD, n = 3. The method, then:
The PRDX1 protein (0.5 nM) was incubated with varying concentrations of the CP1 (0, 0.6, 1.5, and 3.8 nM) at room temperature for 1 h. Subsequently, the Trx/TrxR/NADPH mixture was added and the enzymatic reaction was initiated by the addition of different concentrations of H2O2 (5–1,000 μM). The absorbance changes at 340 nm were monitored in real-time using a microplate reader. Kinetic parameters, including the Michaelis constant (Km), maximum reaction rate (Vmax), and α value, were determined by fitting the data to the Michaelis-Menten equation.

Test [3] has as its target T1, PRDX1. Put plainly: MST assay. In kind it is binding. Conditions: MST; mean ± SD, n = 3; read-out: PRDX1 (Kd). Here is the method: The MST assays were carried out in a buffer composed of 50 mM Tris, 200 mM NaCl, and 0.1% (v/v) TWEEN20. PRDX1 was tagged with the MO-L011 protein labeling kit (RED-NHS second Generation). The diluted compounds were combined with the tagged PRDX1 protein and allowed to stand at room temperature for 5 minutes. Subsequently, the reaction mixture was loaded into capillaries, and measurements were taken using a Monolith NT.115 instrument.

Test [4] relates to A549 lung cancer cells. Put plainly: MTT assay. In kind it is cell-based. The method, then: (§1) Cells were seeded in 96-well plates at 5 ×10^4 cells/well and cultured overnight at 37°C under 5% CO2. After medium removal, cells were treated with serially diluted compounds (0.04–163.84 μM) or vehicle control (0.1% DMSO) and incubated for 72 h. Subsequently, 20 μL of MTT solution (5 mg/mL) was added to each well, and incubation was continued for 4 h. Add 150 μL of DMSO and shake for 10 min to fully dissolve the crystal. Finally, the absorbance was measured at 570 nm using a microplate reader. Cell viability was calculated as (ODcompound - ODblank)/(ODvehicle - ODblank) × 100%. The half inhibitory concentration (IC50) was calculated from the dose-response curve using Prism 8.0 software. Three independent replicate experiments were performed.

For test [5], the system named is BEAS-2B normal lung cells. Put plainly: MTT assay. In kind it is cell-based. To be noted: Homo sapiens, MTT, 72 h, normal lung cells, mean ± SD, n = 3, read-out: IC50 (μM) BEAS-2B. The method, then: as §1
In test [6] the test system is HEK293 (embryonic kidney cells). Put plainly: MTT assay. In kind it is cell-based. Conditions: Homo sapiens, HEK293; MTT, 72 h; normal cells; mean ± SD, n = 3; read-out: IC50 (μM) HEK293. Here is the method:
as §1

Test [7] concerns HaCaT (immortalised keratinocytes). Put plainly: MTT assay. In kind it is cell-based. Conditions: Homo sapiens, 72 h, normal cells, mean ± SD, n = 3. The method, then:
as §1

Test [8] deals with HepG2 (hepatocellular carcinoma cells). Briefly: MTT assay. In kind it is cell-based. Conditions: Homo sapiens, HepG2; MTT, 72 h; mean ± SD, n = 3; read-out: IC50 (μM) HepG2. Here is the method:
as §1

For test [9], the system named is LO2 (normal liver cells). Briefly: MTT assay. In kind it is cell-based. Conditions: Homo sapiens; MTT, 72 h; normal cells; mean ± SD, n = 3; read-out: IC50 (μM) LO2. The method, then:
as §1

Test [10] deals with MCF-7 (breast adenocarcinoma cells). Put plainly: MTT assay. In kind it is cell-based. Conditions: Homo sapiens, MCF7; MTT, 72 h; mean ± SD, n = 3; read-out: IC50 (μM) MCF-7. The method, then:
as §1

In test [11] the target is EPHB4 (Homo sapiens, UniProt P54760). Briefly: Kinase selectivity assay. In kind it is biochemical. To be noted: target EPHB4; read-out: CP1 IC50. Here is the method:
(§2) The selectivity of CP1 for PRDX1 was evaluated through kinase selectivity assays against other PRDX family members and a panel of kinases. The experiments were conducted by ICE Biosciences (Beijing, China).

Test [12] concerns the target T2, FRK (Homo sapiens, UniProt P42685).
T2 construct: assay run by ICE Biosciences (Beijing, China)
Put plainly: Kinase selectivity assay. In kind it is biochemical. To be noted: target FRK; read-out: CP1 IC50. The method, then: as §2

Test [13] deals with INSRR (Homo sapiens, UniProt P14616). Briefly: Kinase selectivity assay. In kind it is biochemical. Conditions: target INSRR; read-out: CP1 IC50. The method, then:
as §2

Test [14] addresses MST1R (Homo sapiens, UniProt Q04912). Put plainly: Kinase selectivity assay. In kind it is biochemical. Conditions: target MST1R; read-out: CP1 IC50. The method, then: as §2
Test [15] concerns the target T3, TEK (Homo sapiens, UniProt Q02763).
T3 construct: assay run by ICE Biosciences (Beijing, China)
Put plainly: Kinase selectivity assay. In kind it is biochemical. Conditions: target TEK; read-out: CP1 IC50. Here is the method:
as §2

Molecules are shown by their SMILES.

Sequence of INSRR (P14616 27-1297): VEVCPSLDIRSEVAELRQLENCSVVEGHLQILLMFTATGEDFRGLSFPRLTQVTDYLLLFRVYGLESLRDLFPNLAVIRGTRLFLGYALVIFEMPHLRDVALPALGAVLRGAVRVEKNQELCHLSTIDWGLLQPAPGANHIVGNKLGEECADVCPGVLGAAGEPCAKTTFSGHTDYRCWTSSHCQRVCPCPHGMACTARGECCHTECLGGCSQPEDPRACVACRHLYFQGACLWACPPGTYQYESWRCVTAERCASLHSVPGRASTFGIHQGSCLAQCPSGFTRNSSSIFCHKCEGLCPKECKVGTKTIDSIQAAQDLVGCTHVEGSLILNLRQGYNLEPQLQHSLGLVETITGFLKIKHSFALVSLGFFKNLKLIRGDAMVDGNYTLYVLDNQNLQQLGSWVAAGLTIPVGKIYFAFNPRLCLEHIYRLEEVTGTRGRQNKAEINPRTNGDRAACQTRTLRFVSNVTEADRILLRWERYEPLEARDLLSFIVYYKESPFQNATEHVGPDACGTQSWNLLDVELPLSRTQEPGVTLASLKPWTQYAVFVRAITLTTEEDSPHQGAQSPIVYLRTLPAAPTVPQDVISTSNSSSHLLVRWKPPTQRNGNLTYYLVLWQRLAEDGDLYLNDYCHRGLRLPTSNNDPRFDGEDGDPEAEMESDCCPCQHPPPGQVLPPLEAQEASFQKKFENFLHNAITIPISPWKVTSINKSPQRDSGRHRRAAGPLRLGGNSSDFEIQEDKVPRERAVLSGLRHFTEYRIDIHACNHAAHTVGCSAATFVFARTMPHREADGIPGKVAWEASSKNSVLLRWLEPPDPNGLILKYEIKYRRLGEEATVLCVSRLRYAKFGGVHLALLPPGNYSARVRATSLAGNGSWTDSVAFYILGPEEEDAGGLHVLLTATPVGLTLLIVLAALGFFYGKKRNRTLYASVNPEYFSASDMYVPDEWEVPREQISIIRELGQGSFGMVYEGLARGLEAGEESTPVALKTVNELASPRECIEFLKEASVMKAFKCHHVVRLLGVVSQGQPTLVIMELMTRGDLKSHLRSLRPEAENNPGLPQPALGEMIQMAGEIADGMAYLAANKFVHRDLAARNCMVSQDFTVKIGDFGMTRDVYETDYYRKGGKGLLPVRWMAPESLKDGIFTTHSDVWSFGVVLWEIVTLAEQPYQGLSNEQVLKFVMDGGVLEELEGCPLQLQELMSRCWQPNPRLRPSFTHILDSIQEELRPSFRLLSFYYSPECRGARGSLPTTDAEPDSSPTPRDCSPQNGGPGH
T2 sequence (P42685 whole entry): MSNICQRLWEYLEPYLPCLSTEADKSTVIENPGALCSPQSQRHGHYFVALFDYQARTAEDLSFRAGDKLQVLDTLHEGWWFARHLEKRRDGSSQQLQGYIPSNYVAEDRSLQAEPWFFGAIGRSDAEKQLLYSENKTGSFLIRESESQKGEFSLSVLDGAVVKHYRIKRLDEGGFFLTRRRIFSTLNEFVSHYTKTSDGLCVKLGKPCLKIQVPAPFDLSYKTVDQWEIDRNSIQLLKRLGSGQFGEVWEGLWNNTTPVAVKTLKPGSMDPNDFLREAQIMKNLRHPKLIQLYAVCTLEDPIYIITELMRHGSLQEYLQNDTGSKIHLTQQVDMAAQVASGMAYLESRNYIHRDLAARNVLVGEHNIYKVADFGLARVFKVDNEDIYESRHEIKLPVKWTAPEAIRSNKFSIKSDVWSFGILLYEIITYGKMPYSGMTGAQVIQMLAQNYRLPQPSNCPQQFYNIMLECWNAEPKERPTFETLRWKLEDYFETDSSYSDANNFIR
Sequence of EPHB4 (P54760 16-987): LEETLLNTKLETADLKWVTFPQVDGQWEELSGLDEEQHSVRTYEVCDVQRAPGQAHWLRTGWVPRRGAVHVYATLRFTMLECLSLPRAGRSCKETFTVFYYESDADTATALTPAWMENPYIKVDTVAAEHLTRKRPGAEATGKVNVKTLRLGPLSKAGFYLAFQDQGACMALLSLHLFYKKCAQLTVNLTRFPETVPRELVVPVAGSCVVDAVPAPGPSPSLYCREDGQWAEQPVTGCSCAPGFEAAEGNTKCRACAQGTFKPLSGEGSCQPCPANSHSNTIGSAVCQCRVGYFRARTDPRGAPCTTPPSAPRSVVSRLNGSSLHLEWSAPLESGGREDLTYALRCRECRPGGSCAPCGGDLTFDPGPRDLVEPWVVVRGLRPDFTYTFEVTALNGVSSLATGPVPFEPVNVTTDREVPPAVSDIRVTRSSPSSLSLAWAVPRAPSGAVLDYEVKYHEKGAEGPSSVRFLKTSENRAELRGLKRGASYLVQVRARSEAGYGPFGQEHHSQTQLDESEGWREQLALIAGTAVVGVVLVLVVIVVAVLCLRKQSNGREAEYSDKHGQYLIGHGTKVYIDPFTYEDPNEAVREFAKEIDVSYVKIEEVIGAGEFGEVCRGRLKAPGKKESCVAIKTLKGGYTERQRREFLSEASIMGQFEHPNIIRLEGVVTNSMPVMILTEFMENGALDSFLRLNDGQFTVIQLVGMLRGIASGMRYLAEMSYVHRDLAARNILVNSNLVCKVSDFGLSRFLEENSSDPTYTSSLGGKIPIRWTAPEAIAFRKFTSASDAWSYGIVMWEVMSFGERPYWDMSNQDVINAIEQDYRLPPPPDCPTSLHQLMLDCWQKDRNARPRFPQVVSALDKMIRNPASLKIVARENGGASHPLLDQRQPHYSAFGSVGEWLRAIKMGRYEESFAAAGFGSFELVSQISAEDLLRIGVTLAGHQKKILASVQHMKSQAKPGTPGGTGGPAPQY
Sequence of MST1R (Q04912 25-1400): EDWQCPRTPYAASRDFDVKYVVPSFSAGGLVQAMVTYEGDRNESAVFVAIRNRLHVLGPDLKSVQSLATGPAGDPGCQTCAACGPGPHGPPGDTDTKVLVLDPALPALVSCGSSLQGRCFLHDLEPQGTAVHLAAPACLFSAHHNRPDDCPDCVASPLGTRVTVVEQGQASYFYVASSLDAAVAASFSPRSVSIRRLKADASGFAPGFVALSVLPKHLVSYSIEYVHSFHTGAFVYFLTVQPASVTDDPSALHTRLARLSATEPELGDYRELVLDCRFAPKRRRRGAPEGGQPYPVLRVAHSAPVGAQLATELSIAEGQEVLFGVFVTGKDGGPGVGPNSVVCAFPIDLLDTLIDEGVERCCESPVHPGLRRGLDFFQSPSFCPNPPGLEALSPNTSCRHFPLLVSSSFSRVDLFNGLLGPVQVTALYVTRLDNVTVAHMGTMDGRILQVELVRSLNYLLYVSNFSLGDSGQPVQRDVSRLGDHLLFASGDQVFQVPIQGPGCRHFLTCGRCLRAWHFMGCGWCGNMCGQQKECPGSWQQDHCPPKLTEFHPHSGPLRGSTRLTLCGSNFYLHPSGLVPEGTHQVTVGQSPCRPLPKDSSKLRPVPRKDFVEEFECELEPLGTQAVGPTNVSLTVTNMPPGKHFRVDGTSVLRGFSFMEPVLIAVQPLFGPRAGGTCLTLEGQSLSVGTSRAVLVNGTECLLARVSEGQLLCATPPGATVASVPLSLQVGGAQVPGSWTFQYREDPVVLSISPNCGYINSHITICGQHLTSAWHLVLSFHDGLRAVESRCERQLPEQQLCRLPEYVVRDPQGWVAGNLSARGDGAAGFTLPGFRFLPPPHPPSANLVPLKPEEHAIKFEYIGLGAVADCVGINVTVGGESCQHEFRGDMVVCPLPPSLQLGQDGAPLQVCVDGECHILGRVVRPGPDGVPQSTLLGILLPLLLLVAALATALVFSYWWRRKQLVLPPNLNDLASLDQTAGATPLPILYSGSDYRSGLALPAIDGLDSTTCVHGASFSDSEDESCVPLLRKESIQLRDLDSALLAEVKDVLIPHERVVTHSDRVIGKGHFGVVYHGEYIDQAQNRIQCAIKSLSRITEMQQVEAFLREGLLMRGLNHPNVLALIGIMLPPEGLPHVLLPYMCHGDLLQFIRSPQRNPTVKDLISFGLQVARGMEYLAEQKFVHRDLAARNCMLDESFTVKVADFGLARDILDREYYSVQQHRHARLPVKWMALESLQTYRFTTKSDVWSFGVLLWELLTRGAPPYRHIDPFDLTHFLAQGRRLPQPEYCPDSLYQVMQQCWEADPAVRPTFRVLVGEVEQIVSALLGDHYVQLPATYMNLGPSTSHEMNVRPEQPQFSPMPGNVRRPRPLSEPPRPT

Turning to `CC1=C(CC(=O)/C=C/c2cccc(CO)c2)C(=O)C=C2C1=CC=C1[C@@]2(C)CC[C@@]2(C)C3C[C@](C)(C(=O)CCc4nc(C(O)C(O)O)c(C)nc4C)CC[C@]3(C)CC[C@]12C` (stereo partly drawn) [CP1], the IC50 is 0.08 ± 0.01 nM in test [1]; 0.22 ± 0.01 µM in test [4] (Homo sapiens, A549, MTT, 72 h, mean ± SD, n = 3, read-out: IC50 (μM) A549); above 100 µM in test [5]; above 100 µM in test [6]; above 100 µM in [7]; 0.25 ± 0.02 µM in test [8]. Also, the IC50 in test [9] is above 100 µM; in test [10], 0.27 ± 0.01 µM; in test [11], above 30000 nM; in test [12], above 30000 nM; in test [13], above 30000 nM; in test [14] it was above 30000 nM. Besides, the IC50 in [15] was above 30000 nM. Further, the “Vmax” value in test [2] (CP1 concentration 0.6 nM) was 56.2 ± 1.94 M/s; in [2] (CP1 concentration 1.5 nM), 40.7 ± 2.42 M/s; in test [2] (CP1 concentration 3.8 nM), 26.8 ± 1.07 M/s. The Kd in test [3] was determined as 0.06 ± 0.001 nM. Also, the “improvement of antiproliferative activity against A549 cells compared to celastrol” value in [4] (ratio of IC50 values) was “approximately 5 fold”.
